± gives the standard deviation of the averaged measurements.
How the values were obtained:
Assay in all cases: level (log10 ratio to DMSO vehicle control); higher = higher biomarker level / cell amount than vehicle control
Octafluoroadipamide = compound: NC(=O)C(F)(F)C(F)(F)C(F)(F)C(F)(F)C(N)=O [Octafluoroadipamide]; settings: in DMSO
Protocol: (§1)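 BioMAP Diversity Plus panel of 12 human primary cell co-culture systems (3C, 4H, LPS, SAg, BT, BF4T, BE3C, CASM3C, HDF3CGF, KF3CT, MyoF, Mphg). Compounds were added 1 h before stimulation and left for 24 h (MyoF 48 h; BT 72 h for soluble read-outs or 6 d for IgG). Biomarkers were read by ELISA, cytotoxicity by SRB, PBMC viability and proliferation by Alamar Blue. Each well value was divided by the mean of 8 DMSO control wells on the same plate and log10 transformed; duplicate blinded samples were tested at 4 concentrations.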

Hexafluoroamylene glycol = compound: OCC(F)(F)C(F)(F)C(F)(F)CO [Hexafluoroamylene glycol]; settings: in DMSO
Protocol: as §1

[1] = compound: C=CC(=O)OCC(F)(F)C(F)(F)C(F)(F)COC(=O)C=C [1H,1H,5H,5H-Perfluoro-1,5-pentanediol diacrylate]; settings: 6700 nM; in DMSO
Protocol: as §1

[2] = compound: O=C(O)C=CC(F)(C(F)(F)F)C(F)(F)F [3-(Perfluoroisopropyl)-2-propenoic acid]; settings: in DMSO
Protocol: as §1

[3] = compound: FC(F)(F)C(F)(F)C(F)(F)C(F)(F)C(F)(F)C(F)(F)CC1CO1 [3-(Perfluorohexyl)-1,2-epoxypropane]; settings: in DMSO
Protocol: as §1

[4] = compound: O=S(=O)(O)CCC(F)(F)C(F)(F)C(F)(F)C(F)(F)C(F)(F)C(F)(F)F [6:2 Fluorotelomer sulfonic acid]; settings: in DMSO
Protocol: as §1

Nonafluoropentanamide = compound: NC(=O)C(F)(F)C(F)(F)C(F)(F)C(F)(F)F [Nonafluoropentanamide]; settings: in DMSO
Protocol: as §1

Test System	level (log10) (Octafluoroadipamide; 6700 nM)	level (log10) (Octafluoroadipamide; 20000 nM)	level (log10) (Octafluoroadipamide; 60000 nM)	level (log10) (Hexafluoroamylene glycol; 6700 nM)	level (log10) (Hexafluoroamylene glycol; 20000 nM)	level (log10) (Hexafluoroamylene glycol; 60000 nM)	level (log10) [1]	level (log10) ([2]; 6700 nM)	level (log10) ([2]; 20000 nM)	level (log10) ([2]; 60000 nM)	level (log10) ([3]; 6700 nM)	level (log10) ([3]; 20000 nM)	level (log10) ([3]; 60000 nM)	level (log10) ([4]; 6700 nM)	level (log10) ([4]; 20000 nM)	level (log10) ([4]; 60000 nM)	level (log10) (Nonafluoropentanamide; 6700 nM)	level (log10) (Nonafluoropentanamide; 20000 nM)	level (log10) (Nonafluoropentanamide; 60000 nM)
LPS:CD62E/E-Selectin	-0.007 ± 0.02	-0.0035 ± 0.016	0.022 ± 0.0028	0.023 ± 0.024	-0.007 ± 0.023	-0.0125 ± 0.0064	-0.0265 ± 0.022	0.0055 ± 0.015	-0.013 ± 0.0042	0.0165 ± 0.0035	-0.0055 ± 0.029	0 ± 0.0042	0.0165 ± 0.026	0.034 ± 0.021	0.007 ± 0.014	0.027 ± 0.023	0.003 ± 0.0042	0.0175 ± 0.005	0.0215 ± 0.029
LPS:CD69	0.011 ± 0.1	0.033 ± 0.052	0.082 ± 0.024	-0.028 ± 0.085	-0.038 ± 0.03	-0.041 ± 0.067	-0.0365 ± 0.036	-0.0365 ± 0.025	-0.0375 ± 0.00071	-0.0255 ± 0.023	-0.024 ± 0.013	-0.0225 ± 0.015	-0.0195 ± 0.0078	-0.0315 ± 0.037	-0.033 ± 0.055	-0.111 ± 0.057	-0.0545 ± 0.046	-0.042 ± 0.05	-0.001 ± 0.025
LPS:CD106/VCAM-1	-0.022 ± 0.047	-0.0065 ± 0.0092	0.008 ± 0.021	-0.0215 ± 0.054	-0.03 ± 0.064	-0.0055 ± 0.059	-0.118 ± 0.071	0.003 ± 0.018	-0.023 ± 0.013	-0.018 ± 0.021	-0.002 ± 0.011	-0.0235 ± 0.015	-0.022 ± 0.017	-0.0055 ± 0.067	-0.0005 ± 0.074	0.0115 ± 0.042	-0.0075 ± 0.028	-0.0135 ± 0.005	0.0035 ± 0.011
LPS:CD141/Thrombomodulin	-0.029 ± 0.1	0.014 ± 0.076	0.0355 ± 0.056	0.0715 ± 0.097	0.035 ± 0.023	0.06 ± 0.064	0.0505 ± 0.054	-0.024 ± 0.037	-0.022 ± 0.0057	-0.036 ± 0.02	-0.0405 ± 0.0035	-0.038 ± 0.0099	-0.0545 ± 0.0064	0.061 ± 0.03	0.065 ± 0.0057	0.0475 ± 0.021	0.005 ± 0.027	0.018 ± 0.035	0.0435 ± 0.035
LPS:CD142/Tissue Factor	-0.0225 ± 0.077	-0.004 ± 0.025	0.057 ± 0.025	0.0025 ± 0.087	0.041 ± 0.081	0.021 ± 0.082	-0.107 ± 0.03	0.0105 ± 0.0078	-0.021 ± 0.025	0.006 ± 0.021	-0.023 ± 0.0057	-0.0095 ± 0.032	0.0015 ± 0.039	-0.0015 ± 0.064	0.02 ± 0.0085	0.0275 ± 0.026	0.0085 ± 0.019	0.0165 ± 0.0078	-0.013 ± 0.017
LPS:CXCL8/IL-8	-0.0035 ± 0.033	0.007 ± 0.0085	0.01 ± 0.013	0.025 ± 0.076	0.026 ± 0.0057	0.0885 ± 0.037	-0.0285 ± 0.00071	-0.0055 ± 0.019	-0.0205 ± 0.023	-0.0015 ± 0.019	-0.0205 ± 0.011	-0.0135 ± 0.021	0.0015 ± 0.035	0.045 ± 0.013	0.072 ± 0.064	0.192 ± 0.1	-0.034 ± 0.028	-0.002 ± 0.034	0.032 ± 0.052
MyoF:CXCL8/IL-8	0.007 ± 0.028	-0.006 ± 0.011	0.0075 ± 0.016	-0.0385 ± 0.028	-0.0325 ± 0.018	0.001 ± 0.075	0.003 ± 0.014	-0.0445 ± 0.0064	-0.032 ± 0.0028	-0.0025 ± 0.019	-0.019	-0.0205 ± 0.025	-0.005 ± 0.031	0.007 ± 0.031	0 ± 0.018	0.016 ± 0.021	-0.0255 ± 0.00071	-0.01 ± 0.024	0.0125 ± 0.015
MyoF:Collagen I	-0.0015 ± 0.015	0.009 ± 0.0071	0.0135 ± 0.0021	0.012 ± 0.0028	-0.0045 ± 0.016	0.019 ± 0.017	-0.0165 ± 0.0035	-0.0025 ± 0.012	-0.002 ± 0.0042	0.002 ± 0.0085	-0.011 ± 0.018	-0.003 ± 0.0028	0.007 ± 0.02	0.011 ± 0.025	-0.022 ± 0.016	0 ± 0.0085	-0.015 ± 0.025	-0.0085 ± 0.047	0.001 ± 0.0071
MyoF:Collagen III	0.0035 ± 0.011	0.009 ± 0.0057	-0.0075 ± 0.025	-0.007 ± 0.017	-0.005 ± 0.018	0.005 ± 0.017	-0.027 ± 0.013	-0.0055 ± 0.022	0.003 ± 0.0071	0.0075 ± 0.005	0.007 ± 0.0028	0.003 ± 0.011	0.0065 ± 0.011	-0.011 ± 0.013	-0.02 ± 0.017	-0.0055 ± 0.015	-0.029 ± 0.021	-0.0335 ± 0.036	-0.0145 ± 0.0092
MyoF:Collagen IV	-0.0165 ± 0.015	-0.0065 ± 0.0064	0.003 ± 0.038	-0.0165 ± 0.042	-0.0015 ± 0.026	-0.0035 ± 0.00071	0.03 ± 0.047	-0.01 ± 0.023	0.0025 ± 0.0078	0.0205 ± 0.022	0.002 ± 0.025	0.0185 ± 0.0021	0.0425 ± 0.053	-0.0185 ± 0.033	-0.006 ± 0.023	-0.002 ± 0.014	-0.051 ± 0.12	-0.0655 ± 0.054	-0.0655 ± 0.064
MyoF:Decorin	0.0105 ± 0.035	-0.0025 ± 0.0092	0.017 ± 0.028	0.001 ± 0.0042	-0.01 ± 0.0042	-0.015 ± 0.013	-0.0325 ± 0.0064	-0.0045 ± 0.021	0.004 ± 0.0014	0.0225 ± 0.029	0.001 ± 0.03	0.003	0.0265 ± 0.035	0.0105 ± 0.0035	0.0015 ± 0.00071	0.0435 ± 0.0021	-0.0155 ± 0.0078	0.013 ± 0.0028	-0.0045 ± 0.00071
